Results published in ChEMBL document CHEMBL1201862, “PubChem BioAssay data set” (2004).
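Interpolation was linear, between the two tested concentrations surrounding the appropriate level; five concentrations were tested over 48 hours in 96-well plates. The concentration for 50% growth inhibition is given as GI50.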 Calls of active or inactive are those of the source. Cut-off read from the data, not from the text of the source: active = GI50 up to about 1.1 µM and inactive = higher.

What was measured:
Assay in all cases: NCI tumour cell line growth inhibition, 48 h
[1] = tested on: SF-268
[2] = tested on: OVCAR-8
[3] = tested on: OVCAR-5
[4] = tested on: RPMI-8226
[5] = tested on: SK-MEL-28
[6] = tested on: COLO 205
[7] = tested on: NCI-H522
[8] = tested on: MDA-MB-435
[9] = tested on: SNB-19
[10] = tested on: DU-145
[11] = tested on: M14
[12] = tested on: 786-0
[13] = tested on: SW-620
[14] = tested on: SK-MEL-2
[15] = tested on: OVCAR-4
[16] = tested on: K562
[17] = tested on: IGROV-1
[18] = tested on: PC-3
[19] = tested on: NCI/ADR-RES
[20] = tested on: CCRF-CEM

Row | Structure (SMILES) | GI50 [1] | GI50 [2] | GI50 [3] | GI50 [4] | GI50 [5] | GI50 [6] | GI50 [7] | GI50 [8] | GI50 [9] | GI50 [10] | GI50 [11] | GI50 [12] | GI50 [13] | GI50 [14] | GI50 [15] | GI50 [16] | GI50 [17] | GI50 [18] | GI50 [19] | GI50 [20]
1 | COc1ccc2oc(=N)c(C(=O)NCc3ccccc3)cc2c1 | 18.8 µM (inactive) | 16.7 µM (inactive) | 43.6 µM (inactive) | 45 µM (inactive) | 26.2 µM (inactive) | 31.7 µM (inactive) | 19.5 µM (inactive) | 14.5 µM (inactive) | 27.4 µM (inactive) | 24.3 µM (inactive) | 33.2 µM (inactive) | 27.9 µM (inactive) | 19 µM (inactive) | 18.6 µM (inactive) | 34.8 µM (inactive) | 41.6 µM (inactive) | 19.9 µM (inactive) | 30.5 µM (inactive) | 14.9 µM (inactive) | 62.1 µM (inactive)
2 | CCOC(=O)NC(Nc1ccc(F)cc1)(C(=O)OCC)C(F)(F)F (centres undefined) | > 100 µM (inactive) | 7.06 µM (inactive) | > 100 µM (inactive) | 2.65 µM (inactive) | > 88.5 µM (inactive) | > 26 µM (inactive) | > 100 µM (inactive) | 0.268 µM (active) | > 100 µM (inactive) | > 21.5 µM (inactive) | 0.156 µM (active) | > 100 µM (inactive) | 1.22 µM (inactive) | 0.982 µM (active) | > 50.8 µM (inactive) | < 0.0307 µM (active) | – | 4.15 µM (inactive) | 12 µM (inactive) | 3.28 µM (inactive)
3 | N#Cc1c(-c2ccccc2)c(/N=N/c2ccc(F)cc2)c(=O)n2c1[nH]c1ccccc12 | 6.43 µM (inactive) | 2.34 µM (inactive) | 5.94 µM (inactive) | 0.708 µM (active) | 8.39 µM (inactive) | 3.43 µM (inactive) | 2.18 µM (inactive) | 4.7 µM (inactive) | 5.05 µM (inactive) | 4.48 µM (inactive) | 3.54 µM (inactive) | 3.65 µM (inactive) | 4.28 µM (inactive) | 18.2 µM (inactive) | 4.09 µM (inactive) | 3.18 µM (inactive) | 2.69 µM (inactive) | 3.4 µM (inactive) | 3 µM (inactive) | 1.26 µM (inactive)
4 | NS(=O)(=O)c1ccc(NNC(=O)c2cccc3c(=O)c4ccccc4[nH]c23)cc1 | 71.8 µM (inactive) | > 100 µM (inactive) | > 100 µM (inactive) | 54.7 µM (inactive) | > 100 µM (inactive) | > 100 µM (inactive) | 41.4 µM (inactive) | 88.1 µM (inactive) | > 100 µM (inactive) | > 100 µM (inactive) | > 100 µM (inactive) | > 100 µM (inactive) | 72.6 µM (inactive) | > 100 µM (inactive) | 61.8 µM (inactive) | 41.7 µM (inactive) | 58.5 µM (inactive) | 65.6 µM (inactive) | > 100 µM (inactive) | 46.1 µM (inactive)
5 | CC(=O)O[C@@H]1[C@H]2O[C@H]2[C@H]2O[C@@]2(COC(=O)c2ccccc2)[C@H]1OC(C)=O | > 100 µM (inactive) | 71.9 µM (inactive) | > 100 µM (inactive) | > 100 µM (inactive) | > 100 µM (inactive) | > 100 µM (inactive) | > 100 µM (inactive) | > 100 µM (inactive) | > 100 µM (inactive) | 73.5 µM (inactive) | > 100 µM (inactive) | > 100 µM (inactive) | > 100 µM (inactive) | > 100 µM (inactive) | > 100 µM (inactive) | > 100 µM (inactive) | 35.8 µM (inactive) | > 100 µM (inactive) | > 100 µM (inactive) | > 100 µM (inactive)
6 | COc1ccc(Nc2nc3cc(C(F)(F)F)ccc3nc2C(=O)O)cc1OC | 42.8 µM (inactive) | 39.5 µM (inactive) | 58.9 µM (inactive) | 25.8 µM (inactive) | 47.5 µM (inactive) | 27.9 µM (inactive) | 30.4 µM (inactive) | 33.8 µM (inactive) | 24 µM (inactive) | 15.4 µM (inactive) | 37.4 µM (inactive) | 31 µM (inactive) | 47.2 µM (inactive) | 11.1 µM (inactive) | 35.4 µM (inactive) | 28.6 µM (inactive) | 36.5 µM (inactive) | 36.9 µM (inactive) | 30.8 µM (inactive) | 16.2 µM (inactive)
7 | COc1cc(-c2coc3c(OC)c(OC4OC(CO)C(O)C(O)C4O)c(OC)cc3c2=O)cc(OC)c1C (centres undefined) | 4.84 µM (inactive) | 3.38 µM (inactive) | 14.2 µM (inactive) | 4.54 µM (inactive) | 4.8 µM (inactive) | 17.9 µM (inactive) | 3.36 µM (inactive) | 3.85 µM (inactive) | 6.81 µM (inactive) | 8.41 µM (inactive) | 4.45 µM (inactive) | 1.28 µM (inactive) | 6.1 µM (inactive) | 16.1 µM (inactive) | 13.1 µM (inactive) | 7.29 µM (inactive) | 4.65 µM (inactive) | 7.01 µM (inactive) | 7.36 µM (inactive) | 3.75 µM (inactive)
8 | Cc1ccc(C(=O)N/N=C(\N=N\c2ccccc2C(=O)O)c2ccc(N(C)C)cc2)cc1 | > 100 µM (inactive) | > 100 µM (inactive) | > 100 µM (inactive) | > 100 µM (inactive) | > 100 µM (inactive) | 35.2 µM (inactive) | 46.3 µM (inactive) | 22.9 µM (inactive) | 55.3 µM (inactive) | > 10 µM (inactive) | 64.6 µM (inactive) | > 100 µM (inactive) | > 100 µM (inactive) | > 100 µM (inactive) | 64.7 µM (inactive) | 35.8 µM (inactive) | > 100 µM (inactive) | > 100 µM (inactive) | 71.6 µM (inactive) | 43.5 µM (inactive)
9 | COC1=C(OC)C(=O)C(Cc2c(Cl)nc3n2CCS3)=C(C)C1=O | 17.6 µM (inactive) | 15.3 µM (inactive) | 17.6 µM (inactive) | 6.53 µM (inactive) | 14.2 µM (inactive) | 17.2 µM (inactive) | 11.6 µM (inactive) | 13.9 µM (inactive) | 16.2 µM (inactive) | 17.2 µM (inactive) | 13.1 µM (inactive) | 18.2 µM (inactive) | 18 µM (inactive) | 14.6 µM (inactive) | 7.73 µM (inactive) | 15.5 µM (inactive) | 16.9 µM (inactive) | 17.7 µM (inactive) | 12.8 µM (inactive) | 2.81 µM (inactive)
10 | c1c[nH]c(C23C4C5C6C4C2C6C53)n1 (centres undefined) | > 100 µM (inactive) | > 100 µM (inactive) | > 100 µM (inactive) | > 100 µM (inactive) | > 100 µM (inactive) | > 100 µM (inactive) | > 100 µM (inactive) | > 100 µM (inactive) | > 100 µM (inactive) | > 100 µM (inactive) | > 100 µM (inactive) | > 100 µM (inactive) | > 100 µM (inactive) | > 100 µM (inactive) | 30.6 µM (inactive) | > 100 µM (inactive) | > 100 µM (inactive) | > 100 µM (inactive) | > 100 µM (inactive) | > 100 µM (inactive)
11 | O=C1NCC2(CCN(Cc3ccccc3)CC2)N1 | > 100 µM (inactive) | > 100 µM (inactive) | > 100 µM (inactive) | > 100 µM (inactive) | > 100 µM (inactive) | > 100 µM (inactive) | > 100 µM (inactive) | > 100 µM (inactive) | > 100 µM (inactive) | > 100 µM (inactive) | > 100 µM (inactive) | > 100 µM (inactive) | > 100 µM (inactive) | > 100 µM (inactive) | > 100 µM (inactive) | > 100 µM (inactive) | > 100 µM (inactive) | > 100 µM (inactive) | > 100 µM (inactive) | > 100 µM (inactive)
12 | COc1ccc(C(OC(C)=O)C2C(=C(C#N)C#N)c3ccccc3C2=C(C#N)C#N)cc1 (centres undefined) | 35.6 µM (inactive) | 60.7 µM (inactive) | 17.2 µM (inactive) | 25.5 µM (inactive) | 67.3 µM (inactive) | – | 38.2 µM (inactive) | 36.7 µM (inactive) | – | 64.9 µM (inactive) | 40.7 µM (inactive) | 60.4 µM (inactive) | 36.8 µM (inactive) | 27.7 µM (inactive) | 32.4 µM (inactive) | 30.1 µM (inactive) | 65.6 µM (inactive) | 21.8 µM (inactive) | 50.1 µM (inactive) | 21.8 µM (inactive)
13 | O=C1C(Br)=CC2(C=C1Br)CCNC1=C2C(=O)c2[nH]cnc2C1=O | 14.8 µM (inactive) | 16.8 µM (inactive) | 15.9 µM (inactive) | 14.5 µM (inactive) | 16.1 µM (inactive) | 21.3 µM (inactive) | 14.4 µM (inactive) | 11 µM (inactive) | – | 16 µM (inactive) | 16.9 µM (inactive) | 16.4 µM (inactive) | 17.7 µM (inactive) | 9.12 µM (inactive) | 14.5 µM (inactive) | 12.4 µM (inactive) | – | 25.7 µM (inactive) | 21.1 µM (inactive) | 15 µM (inactive)
14 | CC[C@H]1CN(C)[C@H]2Cc3c([nH]c4ccccc34)C(=O)C[C@H]1C2C(=O)OC (some centres undefined) | > 100 µM (inactive) | > 100 µM (inactive) | > 100 µM (inactive) | 57.8 µM (inactive) | > 100 µM (inactive) | > 100 µM (inactive) | > 100 µM (inactive) | > 100 µM (inactive) | > 100 µM (inactive) | > 100 µM (inactive) | > 100 µM (inactive) | > 100 µM (inactive) | > 100 µM (inactive) | > 100 µM (inactive) | > 100 µM (inactive) | – | > 100 µM (inactive) | > 100 µM (inactive) | > 100 µM (inactive) | 97.5 µM (inactive)
